Data set [1] concerns CaCo2. The data set is described as follows: Anti-proliferative activity, cell-titre luminescent viability assay. It counts as cell-based. The conditions noted are these: Homo sapiens, Caco-2, 72 h, 0.03, 0.3, 3 and 30 μM, linear regression of semi-log plots, read-out: IC50 Colorectal CaCo2. The method, boiled down:
(§1)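 Cells attached for 24 h at 37° C, 5% CO2, then received compound (0.03, 0.3, 3, 30 μM, or 0.1–30 μM in six steps) for 72 h. Viability was read by cell-titre luminescence after 30 min and normalized to untreated or vehicle control. IC50 came from linear regression of semi-log plots, or EC50 from variable-slope sigmoidal nonlinear regression, depending on compound.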

In data set [2] the test system is MDA-MB-231. The data set is described as above. The data set is classed as cell-based. The note with it: Homo sapiens, MDA-MB-231, 72 h, 0.03, 0.3, 3 and 30 μM, linear regression of semi-log plots, read-out: IC50 Breast MDA-MB-231. The method, boiled down:
as §1

For data set [3], the system named is SK-Mel-28. The description is as above. The data set is classed as cell-based. The conditions noted are these: Homo sapiens, SK-MEL-28; 72 hours; 0.03, 0.3, 3 and 30 μM; linear regression of semi-log plots; read-out: IC50 Melanoma SK-Mel-28. The method in brief:
as §1

In data set [4] the test system is SK-N-SH. The description is as above. It counts as cell-based. The conditions noted are these: Homo sapiens, SK-N-SH, 72 h, 0.03, 0.3, 3 and 30 μM, linear regression of semi-log plots, read-out: IC50 Neuroblastoma SK-N-SH. The method, boiled down: as §1
Data set [5] relates to IFN-γ. Kind of data set: Inhibition of cytokine release from PBMCs (HTRF). It counts as cell-based. The conditions noted are these: PBMC, human PBMCs, PMA and ionomycin stimulated. Here is the method:
(§2) The ability of compounds 3507, 3520, 3534 and 3538 to inhibit the release of cytokines TNF-α, IFN-γ, IL-6, IL-21, IL-17A and IL-23 was evaluated in vitro (Tables 4 and 5). Briefly, human peripheral blood mononuclear cells (PBMCs) were isolated from human peripheral blood by Histopaque density gradient centrifugation. The freshly isolated PBMCs were seeded at 50,000 cells/well in a 96-well half area plate. PBMCs were dosed with the test compounds (at 10 μM, 1 μM and 0.1 μM) and then incubated at 37° C. and 5% CO2 for 2 hours. To stimulate release of the cytokines IFN-γ, IL-21, IL-17A and IL-23, the PBMCs were treated with 50 ng/mL of phorbol 12-myristate 13-acetate (PMA) and 1 μg/mL of ionomycin and to stimulate the release of TNF-α and IL-6, PBMCs were treated with 100 ng/mL of lipopolysaccharide (LPS) from gram-negative bacteria. The PBMCs were then incubated at 37° C. and 5% CO2 for a further 6 hours and the cell supernatant was collected and a Homogenous Time Resolved Fluorescence (HTRF) assay was carried out following the manufacturer's instructions. Cytokine release from the PBMCs was captured using a Perkin Elmer ENVISION 2104 microplate reader set at 615 nm and 665 nm respectively.
In general terms: Time-resolved FRET reads energy transfer from a long-lived donor to a nearby acceptor.

Data set [6] concerns IL-17A. The data set is described as follows: Inhibition of cytokine release from PBMCs (HTRF). It counts as cell-based. The note with it: PBMC, human PBMCs, PMA and ionomycin stimulated. As for the experimental part:
as §2

The test system of data set [7] is IL-21. Kind of data set: Inhibition of cytokine release from PBMCs (HTRF). The data set is classed as cell-based. The conditions noted are these: PBMC, human PBMCs, PMA and ionomycin stimulated. As for the experimental part:
as §2

The subject of data set [8] is IL-23. Kind of data set: Inhibition of cytokine release from PBMCs (HTRF). It counts as cell-based. The note with it: PBMC, human PBMCs, PMA and ionomycin stimulated. As for the experimental part:
as §2

For data set [9], the system named is IL-6. The data set is described as follows: Inhibition of cytokine release from PBMCs (HTRF). The data set is classed as cell-based. The note with it: PBMC, human PBMCs, LPS stimulated. As for the experimental part:
as §2

Data set [10] deals with TNF-α. The data set is described as follows: Inhibition of cytokine release from PBMCs (HTRF). The data set is classed as cell-based. The conditions noted are these: PBMC, human PBMCs, LPS stimulated. Here is the method:
as §2

Data set [11] relates to CHLA20 tumours. Kind of data set: CHLA20 neuroblastoma xenograft model. The note with it: 150 mg/kg IP daily, 18 days. It counts as in vivo. As for the experimental part:
FIG. 4: Compound 3507/30% w/v Dexolve-7 was administered IP daily at 150 mg/kg for 18 days in a flank xenograft model of neuroblastoma (CHLA-20). Tumour volume was measured every 2-3 days.
The in vivo efficacy of compound 3507 was evaluated in the CHLA20 neuroblastoma xenograft model. CHLA20 tumours were established in athymic nude mice by injecting 1.0×10^7 tumour cells subcutaneously in the right flank. Dosing of animals commenced when tumour volume reached ˜200-400 mm^3. Animals (˜n=5+) were randomly divided into treatment and control groups. Compound 3507 was dosed daily by intraperotineal (IP) injection at 150 mg/kg in 30% w/v Captisol (a cyclodextrin-containing formulation).

As a reminder, the IC50 is the concentration at which inhibition is half-maximal. In general, inhibition refers to the drop in the measured response relative to a control, in per cent.

`Cc1c(C)n(CCCN2CCN(C)CC2)c2ccc(Oc3cccc(C(=O)N4CCN(CCc5ccc(F)cc5)CC4)c3)cc12` [Compound 3507, (3-((2,3-dimethyl-1-(3-(4-methylpiperazin-1-yl)propyl)-1H-indol-5-yl)oxy)phenyl)(4-(4-fluorophenethyl)piperazin-1-yl)methanone]: the half-maximal inhibitory concentration (IC50) in data set [1] is 2.5 µM; in [2], 1.4 µM; in data set [3] it was 1 µM; in data set [4], 1.4 µM. Also, the inhibition at 0.1 µM in data set [5] (0.1 μM) was 16%; in data set [6] (0.1 μM), 2%; in [7] (0.1 μM), -6%; in [8] (0.1 μM), -7%; in data set [9] (0.1 μM) it was -9%; in data set [10] (0.1 μM), 52%. The inhibition at 1 µM in [5] (1 μM) was found to be 42%; in data set [6] (1 μM), 4%; in [7] (1 μM) it was 5%; in data set [8] (1 μM) it was 0%; in data set [9] (1 μM) it was 21%; in data set [10] (1 μM) it was 68%. Further, the inhibition at 10 µM in data set [5] (10 μM) amounted to 77%; in [6] (10 μM) it was 13%; in data set [7] (10 μM), 19%; in data set [8] (10 μM), 20%; in data set [9] (10 μM) it was 68%; in [10] (10 μM), 90%. In data set [11], the tolerability result is “well tolerated”.

The values are drawn from patent US20170152226A1, “FUNCTIONALISED AND SUBSTITUTED INDOLES AS ANTI-CANCER AGENTS” (Novogen Ltd., priority 2014, published 2017).
